Laboratory results taken from patent publication US10500388B2 (priority 2005, dated 2019).
Read-outs that look alike come from different tables or passages of the source.

Assays:
[1] = test system: E coli; format: cell-based, Escherichia coli
Description: A suitable method is the serial plate transfer test (SPTT) (Bayston R. Grove N, Siegel J, Lawellin D, Barsham S. Prevention of hydrocephalus shunt catheter colonisation in vitro by impregnation with antimicrobials. J Neurol Neurosurg Psychiatr 1989, 52: 605-689) which allows for a portion of an antimicrobial material, typically a catheter segment of approximately 5 mm length, to be placed on the surface of an agar plate seeded with susceptible index bacteria in such a way that the cut ends of the test catheter are not in contact with the eluting surface, by means of a well or other arrangement.
Wound guards (e.g. for protection of catheter or external fixation pin exit sites) in the form of discs of silicone elastomer of 2.5 cm diameter and 3.5 mm thickness were impregnated with either rifampin+clindamycin (A), rifampin+clindamycin+triclosan (B) or triclosan alone (C). […] After overnight incubation, inhibition zones were measured and the discs were transferred to a further seeded plate, and this process repeated until no zones were seen. Any bacterial colonies growing inside the inhibition zones or under the discs were tested for minimal inhibitory concentration (MIC) to triclosan and their identities with the original inoculum determined by pulse field gel electrophoresis. […]

[2] = test system: S. aureus; assay: MIC of triclosan for inoculum and for colonies growing inside zones or under discs; format: cell-based; conditions: Staphylococcus aureus
Method: (§1) Wound guards (e.g. for protection of catheter or external fixation pin exit sites) in the form of discs of silicone elastomer of 2.5 cm diameter and 3.5 mm thickness were impregnated with either rifampin+clindamycin (A), rifampin+clindamycin+triclosan (B) or triclosan alone (C). The discs were then sterilised by autoclaving, and placed on agar plates seeded with the gram-positive bacteria Staphylococcus aureus. After overnight incubation, inhibition zones were measured and the discs were transferred to a further seeded plate, and this process repeated until no zones were seen. Any bacterial colonies growing inside the inhibition zones or under the discs were tested for minimal inhibitory concentration (MIC) to triclosan and their identities with the original inoculum determined by pulse field gel electrophoresis.

[3] = test system: E. coli; assay: as above; format: cell-based; conditions: Escherichia coli
Method: as §1, with “electrophoresis. The results were as follows:” for “electrophoresis.”
The simulation was repeated using plates seeded with the gram-negative bacterium E coli.

[4] = read-out: MIC of triclosan for resistant mutants

Q: Which “Activity against E. coli” value [1] does the source give for `CO[C@H]1/C=C/O[C@@]2(C)Oc3c(C)c(O)c4c(O)c(c(/C=N/N5CCN(C)CC5)c(O)c4c3C2=O)NC(=O)/C(C)=C\C=C\[C@H](C)[C@H](O)[C@@H](C)[C@@H](O)[C@@H](C)[C@H](OC(C)=O)[C@@H]1C` [Rifampin, 2-(4-methyl-1-piperazinyl-iminomethyl)-rifamycin SV] here?
A: The value was “no activity”.

Q: Which MIC [2, 4] does the source give for `Oc1cc(Cl)ccc1Oc1ccc(Cl)cc1Cl` [Triclosan] here?
A: The MIC was 125 µg/mL.

Q: What about the MIC ([2]; S. aureus original inoculum, read-out: MIC of triclosan for inoculum) of the same molecule?
A: Its MIC is 3.75 µg/mL.

Q: What about the MIC ([3]; read-out: MIC of triclosan for inoculum) of the same molecule?
A: The MIC was 16 µg/mL.

Q: What about the MIC [3, 4] of the same molecule?
A: The MIC was 250 µg/mL.

Q: Which “Activity against E. coli” value [1] does the source give for `CCC[C@@H]1C[C@@H](C(=O)N[C@@H]([C@H]2O[C@H](SC)[C@H](O)[C@@H](O)[C@H]2O)[C@H](C)Cl)N(C)C1` [clindamycin] here?
A: The value was “no activity”.
